Where two headings read alike, the source gives them in different places.
Experiments:
HT-29 cells [1] = assay: HT-29 cell death (MTT) with DNA damaging agents, alone or with […]; type: cell-based, human; conditions: for apoptosis as relative cell death, low doses: 0.5 μg/mL DOX, CIS, 1 μg/mL 5-Fu, 0.6 μg/mL IRINO, 24 h pretreatment then 24 h drug alone or with TRAILPEG 1 μg/mL; for TRAIL-induced apoptosis, sub-lethal dose combined with TRAILPEG versus drug alone: DOX 2, 5-FU 10, CIS 2, IRINO 3 μg/mL
Experimental: A total of 1×10^4 cells were plated in 0.1 mL in 96-well flat bottom plates and incubated for 24 h before being exposed to various stimuli. After incubation for the indicated times, […] MTT solution was added to each well and incubated for 1 h. After removal of the medium, 200 μL of DMSO was added to each well to dissolve the formazan crystals. The absorbance at 540 nm was determined using a microplate reader (Bio-Tek Instruments, Inc, Winooski, Vt.). Triplicate wells were assayed for each condition.

DR4 [2] = conditions: HT-29 cells, DOX 24 h, qPCR
Experimental: (§1) Total cellular RNA was purified from HT-29 cells using Trizol reagent (Life Technology) and subjected to amplification with SuperScript One-Step RT-PCR system (Life Technology). Real-time PCR was carried out using a StepOne™ Real-Time PCR System according to the manufacturer instructions (Life Technology). The mean cycle threshold value (Ct) from triplicate samples was used to calculate the gene expression. β-actin was used as an internal control to normalize the variability in expression.

DR5 [3] = conditions: HT-29 cells, DOX 24 h, qPCR
Experimental: as §1

[4] = tested on: HT-29, MDA-MB-231, A549, PC3 cells; assay: Cleaved PARP-1 western blot in TRAIL-resistant tumor cell lines; type: cell-based, human; conditions: HT-29, MDA-MB-231, A549, PC3 (and HCT116 for the combination)
From the text: (§3) Anti-caspase-8 (Cell Signaling Technology, Danvers, Mass., #9746), anti-cleaved PARP-1 (Cell Signaling Technology, #5625), anti-cleaved caspase-3 (Cell Signaling Technology, #9664), anti-cleaved caspase-9 (Cell Signaling Technology, #7237), anti-CD44 (Cell Signaling Technology, #5640), anti-p-JNK (Cell Signaling Technology, #4668), anti-p-p53 (Ser15 Cell Signaling Technology, #9284), anti-BCl-2 (Cell Signaling Technology, #2870), anti-p-BCL-2 (Cell Signaling Technology, #2875), anti-BCL-XL (Cell Signaling Technology, #2764), anti-DR4 (Abcam, Cambridge, Mass., #13890), anti-DR5 (Abcam, #47179), anti-c-Jun (Santa Cruz Biotechnology, Santa Cruz, Calif., sc-1694), or anti-β-actin (sc-47778) were used in the Western blot analysis. In generally, cells were lysed and sonicated briefly in ice-cold PBS buffer (1 mM PMSF, and 1 μg/ml each of aprotinin, leupeptin, and pepstatin A). Cell lysates were clarified by centrifugation, resolved by SDS-PAGE, and proteins on gels were transferred to nitrocellulose (Bio-Rad, Hercules, Calif.) using a semidry blotter (Bio-Rad). The membrane was blocked with 3% BSA in TBST (10 mM Tris-Cl, pH 8.0, 150 mM NaCl, 0.05% Tween-20) and incubated overnight at 4° C. with primary antibodies. Immunoblots were visualized by an enhanced chemiluminescence method.

DR4 [5] = conditions: HT-29 cells, DOX 2 μg/mL
From the text: as §3

DR5 [6] = assay: Western blot of DR5 protein in HT-29 cells; type: cell-based, human; conditions: DOX 2 μg/mL, regardless of TRAILPEG
From the text: (§2) Immunoblots were visualized by an enhanced chemiluminescence method.

[7] = DOX distribution in HT-29 xenograft tumors; type: in vivo, mice; conditions: HT-29 xenografts, single i.v. 7 mg/kg DOX-based
Experimental: Mice bearing HT-29 xenograft tumors were intravenously administered with DOX (7 mg/kg) and HAC/DOX (containing 7 mg/kg equivalent doxorubicin) when tumors reached 300 mm^3. At each selected time point, 3 mice in one group were euthanized by cervical dislocation. Whole blood was collected via cardiac puncture with a heparinized syringe. Tumors were dissected out and frozen at −70° C. immediately. Plasma samples were isolated from whole blood by centrifugation at 3000 g for 5 min. Tissues homogenates were prepared in 800 μL water using a Polytron homogenizer (Brinkman Instruments, Mississauga, Ontario, Canada), and then 200 μL of H2SO4 was added to the tissue homogenates. The solutions were then digested for 2 h at 60° C. After the vials cooled to room temperature, 100 μL of AgNO3 was added. Then the samples were centrifuged at 12,000 g for 10 min, and the supernatant was counted in a fluorospectrometer (RF-5301, Shimadzu) at an excitation wavelength of 500 nm and emission wavelength of 558 nm. The concentration of doxorubicin in each tissue was calculated based on a calibration curve. The calibration curve was linear over the 0.02 and 2.00 μg/mL range with a correlation coefficient of R^2=0.9993.

Casp-8, Casp-3 = assay: Western blot of cleaved caspases in HT-29 tumors in vivo; set-up: species or system mice; conditions: followed by TRAILPEG, HT-29 xenografts
From the text: as §2

[8] = Survival of HT-29 xenograft mice during treatment; type: in vivo, BALB/c athymic mice; conditions: high dose 7 mg/kg free DOX (with TRAILPEG), HT-29 xenografts
Experimental: The antitumor effects of […] after HAC/DOX sensitizing were investigated in HT-29 tumor bearing mice (n=5). Briefly, freshly harvested HT-29 cells (5×10^6 cells/mouse) were inoculated s.c. into BALB/c athymic mice. Treatment was initiated when the tumors reached a mean volume of 150 mm^3. Mice were treated with three rounds of DOX or HAC/DOX (7 mg/kg, i.v.) combined with […] (8 mg/kg, i.v.) for 10 days. The tumors were analyzed and calculated as described above. (n=5).

HT-29 cells [9] = assay: Western blotting of apoptosis markers in HT-29 cells; type: cell-based, human; conditions: western blot
From the text: as §2

[10] = rodents; cited from earlier work
[11] = humans; cited from earlier work

O=c1[nH]cc(F)c(=O)[nH]1 [5-FU, 5-fluorouracil]
apoptosis as relative cell death, low doses (HT-29 cells [1]): did not induce apoptosis
TRAIL-induced apoptosis, sub-lethal dose combined with TRAILPEG versus drug alone (HT-29 cells [1]): enhanced TRAIL-induced apoptosis was observed

COc1cccc2c1C(=O)c1c(O)c3c(c(O)c1C2=O)C[C@@](O)(C(=O)CO)C[C@@H]3O[C@H]1C[C@H](N)[C@H](O)[C@H](C)O1 [DOX, doxorubicin]
DR4 mRNA levels (DR4 [2]): did not change
increase of DR5 mRNA compared to untreated cells (DR5 [3]): 60%
cleaved PARP-1 expression [4]: induced low levels of cleaved PARP-1
upregulation of DR4 expression at the protein level (DR4 [5]): not DR4
upregulation of DR5 expression at the protein level (DR5 [6]): 3 to 4 fold
DOX concentration in tumor over time [7]: gradually decreased with time
Casp-3 activation vs. control (Casp-8, Casp-3; high dose 7 mg/kg DOX-based): 2 fold
Casp-3 activation vs. control (Casp-8, Casp-3; low dose 2 mg/kg DOX-based): 2 fold
apoptosis as relative cell death, low doses (HT-29 cells [1]): did not induce apoptosis
TRAIL-induced apoptosis, sub-lethal dose combined with TRAILPEG versus drug alone (HT-29 cells [1]): enhanced TRAIL-induced apoptosis was observed
mice died during the treatment cycle [8]: 60%
phosphorylation of p53 and activation of c-jun (HT-29 cells [9]): led to the phosphorylation of p53 and the activation of c-jun

CCc1c2c(nc3ccc(OC(=O)N4CCC(N5CCCCC5)CC4)cc13)-c1cc3c(c(=O)n1C2)COC(=O)[C@]3(O)CC [IRINO, irinotecan]
apoptosis as relative cell death, low doses (HT-29 cells [1]): did not induce apoptosis
TRAIL-induced apoptosis, sub-lethal dose combined with TRAILPEG versus drug alone (HT-29 cells [1]): enhanced TRAIL-induced apoptosis was observed

Oc1c2ccccc2c2c3c(cccc13)N=N2 [SP600125]
reduction of DOX and TRAILPEG-induced cell death (HT-29 cells [1]; SP600125 20 μM pre-treatment): 35%

rhTRAIL: recombinant human tumor necrosis factor (TNF)-related apoptosis inducing ligand
half-life in physiological conditions [10]: 3-5 min
half-life in physiological conditions [11]: less than 30 minutes

— US20180050090A1, “COMPOSITIONS AND METHODS FOR SENSITIZING CELLS TO TRAIL-INDUCED APOPTOSIS” (THE JOHNS HOPKINS UNIVERSITY, priority 2008, published 2018)
